By pIC50 is commonly meant the negative decadic logarithm of the IC50, by convention in mol/L. In general, inhibition refers to the change of the read-out against control, counted positive when it falls. The term LD50 denotes the dose expected to kill half of the subjects tested.

Structures are written as SMILES. pIC50: −log10 of the molar value. Some results are limits rather than exact numbers.

These results are taken from the Kinase Knowledgebase extract (Sharma et al. 2016).

ROCK2, sequence (O75116 whole entry, looked up): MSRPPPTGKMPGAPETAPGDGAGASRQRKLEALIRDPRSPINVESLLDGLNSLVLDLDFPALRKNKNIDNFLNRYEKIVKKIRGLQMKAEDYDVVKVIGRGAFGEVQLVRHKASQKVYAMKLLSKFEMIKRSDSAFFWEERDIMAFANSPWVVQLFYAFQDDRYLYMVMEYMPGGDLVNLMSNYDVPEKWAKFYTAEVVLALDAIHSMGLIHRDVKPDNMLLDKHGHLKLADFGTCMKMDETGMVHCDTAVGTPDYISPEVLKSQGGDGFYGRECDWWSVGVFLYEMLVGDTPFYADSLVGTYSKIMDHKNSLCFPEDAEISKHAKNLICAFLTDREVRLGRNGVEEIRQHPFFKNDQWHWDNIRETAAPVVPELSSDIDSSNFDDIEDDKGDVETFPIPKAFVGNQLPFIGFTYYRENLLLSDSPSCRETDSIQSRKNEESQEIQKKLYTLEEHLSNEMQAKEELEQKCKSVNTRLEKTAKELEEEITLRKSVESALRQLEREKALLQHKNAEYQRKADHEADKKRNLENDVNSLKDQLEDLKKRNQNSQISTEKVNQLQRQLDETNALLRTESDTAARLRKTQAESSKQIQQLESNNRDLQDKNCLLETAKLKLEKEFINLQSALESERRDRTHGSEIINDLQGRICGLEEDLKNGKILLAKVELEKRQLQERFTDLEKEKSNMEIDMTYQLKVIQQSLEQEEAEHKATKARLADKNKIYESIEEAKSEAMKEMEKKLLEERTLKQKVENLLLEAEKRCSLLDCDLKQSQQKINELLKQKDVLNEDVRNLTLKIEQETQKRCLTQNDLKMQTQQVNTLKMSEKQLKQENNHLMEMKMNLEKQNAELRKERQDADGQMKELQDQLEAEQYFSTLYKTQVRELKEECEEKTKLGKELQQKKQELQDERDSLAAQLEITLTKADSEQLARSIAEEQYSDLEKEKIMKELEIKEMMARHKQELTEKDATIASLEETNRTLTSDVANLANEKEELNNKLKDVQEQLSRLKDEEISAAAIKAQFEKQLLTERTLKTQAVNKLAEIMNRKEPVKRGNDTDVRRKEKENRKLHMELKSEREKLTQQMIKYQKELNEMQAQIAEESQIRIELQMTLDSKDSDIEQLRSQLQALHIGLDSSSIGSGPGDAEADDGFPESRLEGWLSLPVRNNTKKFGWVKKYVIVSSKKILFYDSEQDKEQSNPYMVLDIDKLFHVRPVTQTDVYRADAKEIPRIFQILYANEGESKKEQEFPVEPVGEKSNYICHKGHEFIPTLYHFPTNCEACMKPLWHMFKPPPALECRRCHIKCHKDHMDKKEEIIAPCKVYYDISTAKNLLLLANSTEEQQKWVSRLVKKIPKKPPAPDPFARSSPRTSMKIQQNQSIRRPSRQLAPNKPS
EGFR (murine), sequence (P00533 whole entry, looked up): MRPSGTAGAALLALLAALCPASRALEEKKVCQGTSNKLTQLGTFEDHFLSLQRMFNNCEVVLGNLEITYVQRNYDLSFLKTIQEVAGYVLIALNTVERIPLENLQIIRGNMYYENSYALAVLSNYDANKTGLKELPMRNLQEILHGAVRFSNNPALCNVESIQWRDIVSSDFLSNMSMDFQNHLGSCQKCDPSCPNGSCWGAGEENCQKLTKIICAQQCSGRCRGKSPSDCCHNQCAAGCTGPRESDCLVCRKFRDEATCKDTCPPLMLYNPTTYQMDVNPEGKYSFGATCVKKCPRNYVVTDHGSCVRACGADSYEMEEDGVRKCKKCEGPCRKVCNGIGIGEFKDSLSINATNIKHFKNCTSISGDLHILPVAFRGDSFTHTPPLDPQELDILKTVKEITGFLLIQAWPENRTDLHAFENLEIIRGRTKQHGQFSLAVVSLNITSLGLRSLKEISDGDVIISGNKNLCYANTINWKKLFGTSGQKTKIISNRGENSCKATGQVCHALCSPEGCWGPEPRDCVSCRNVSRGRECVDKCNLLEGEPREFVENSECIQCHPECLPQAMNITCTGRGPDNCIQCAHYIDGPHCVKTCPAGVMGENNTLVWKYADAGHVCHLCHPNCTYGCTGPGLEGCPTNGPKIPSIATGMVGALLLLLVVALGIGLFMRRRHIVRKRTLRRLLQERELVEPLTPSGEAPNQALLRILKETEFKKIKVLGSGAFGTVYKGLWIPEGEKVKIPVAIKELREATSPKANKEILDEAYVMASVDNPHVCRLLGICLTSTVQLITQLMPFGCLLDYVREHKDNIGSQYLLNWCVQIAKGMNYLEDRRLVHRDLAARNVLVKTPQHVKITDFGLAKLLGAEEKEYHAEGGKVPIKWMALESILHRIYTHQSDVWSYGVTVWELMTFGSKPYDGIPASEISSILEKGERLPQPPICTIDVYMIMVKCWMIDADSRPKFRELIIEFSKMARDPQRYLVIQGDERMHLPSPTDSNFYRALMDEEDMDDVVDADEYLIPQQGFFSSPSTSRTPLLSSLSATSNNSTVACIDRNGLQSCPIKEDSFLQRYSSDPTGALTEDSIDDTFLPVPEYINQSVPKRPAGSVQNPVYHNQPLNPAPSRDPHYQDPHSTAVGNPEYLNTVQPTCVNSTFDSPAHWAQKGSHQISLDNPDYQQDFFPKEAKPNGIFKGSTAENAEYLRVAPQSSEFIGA
ROCK2 (human), sequence (O75116 whole entry, looked up): as the sequence (O75116 whole entry, looked up) above

In the first assay the target is EGFR (UniProt P00533).
EGFR, sequence (P00533 whole entry, looked up): as the sequence (P00533 whole entry, looked up) above
Experiment: not given
Settings: not given
As for `CN(C)CCCC(=O)N1CCOc2cc3ncc(C#N)c(Nc4ccc(F)c(Cl)c4)c3cc21`, the pIC50 was 6.70.
In turn, `N#Cc1cnc2cc3c(cc2c1Nc1ccc(F)c(Cl)c1)N(C(=O)/C=C/CBr)CCO3.N#Cc1cnc2cc3c(cc2c1Nc1ccc(F)c(Cl)c1)N(C(=O)/C=C/CCl)CCO3` had a pIC50 of 6.00.
`CN(C)CCCCN1CCOc2cc3ncc(C#N)c(Nc4ccc(F)c(Cl)c4)c3cc21` had a negative-log IC50 (pIC50) of 8.30.

Staying with this assay, now noted: concentration not given here.
For `N#Cc1cnc2cc3c(cc2c1Nc1ccc(F)c(Cl)c1)N(C(=O)/C=C/CBr)CCO3.N#Cc1cnc2cc3c(cc2c1Nc1ccc(F)c(Cl)c1)N(C(=O)/C=C/CCl)CCO3`, the inhibition came out at 29.9%.

A further assay has as its target EGFR (mouse) (UniProt P00533).
Experiment: not given
As to conditions: swiss 3t3 fibroblast.
`CN1C(=S)C(C(=O)Nc2ccccc2)c2ccccc21` (stereo not given): the pIC50 is < 4.00.
Consider `COc1ccc2c(C(=O)Nc3ccccc3)c(SSc3c(C(=O)Nc4ccccc4)c4ccc(OC)cc4n3C)n(C)c2c1`, for which the pIC50 is < 4.00.
Still for that read-out and setting: with `Cn1c(SSc2c(C(=O)Nc3ccccc3)c3cccnc3n2C)c(C(=O)Nc2ccccc2)c2cccnc21` the figure was < 4.60; with `Cn1c(SSc2c(C(=O)Nc3ccccc3)c3ccccc3n2C)c(C(=O)Nc2ccccc2)c2ccccc21`, < 4.00; with `COc1cccc2c(C(=O)Nc3ccccc3)c(SSc3c(C(=O)Nc4ccccc4)c4cccc(OC)c4n3C)n(C)c12`, < 4.00.

Another assay has as its target EGFR (human) (UniProt P00533).
Experiment: not given
As to conditions: hn5.
`CS(=O)(=O)NCCNCc1ccc(-c2cc3c(Nc4ccc(OCc5ccccc5)cc4)ncnc3cn2)o1` had a pIC50 of 6.14.
In turn, `NC(=O)[C@H]1CCCN1Cc1ccc(-c2cc3c(Nc4ccc(OCc5ccccc5)cc4)ncnc3cn2)o1` gave a pIC50 of 6.46.
Molecule `CN(CC(N)=O)Cc1ccc(-c2cc3c(Nc4ccc(OCc5ccccc5)cc4)ncnc3cn2)o1` gave a pIC50 of 6.46.
In turn, `OCc1ccc(-c2cc3c(Nc4ccc(OCc5ccccc5)cc4)ncnc3cn2)o1` gave a pIC50 of 6.34.
`CN(C)C(=O)[C@@H]1CCCN1Cc1ccc(-c2cc3c(Nc4ccc(OCc5ccccc5)cc4)ncnc3cn2)o1` had a pIC50 of 5.48.

For another assay, the target named is MAPK14 (human) (UniProt Q16539). The assay is described as follows: p38-alpha Kinase Inhibition. Particulars: COS-1.
MAPK14 (human), sequence (Q16539 whole entry, looked up): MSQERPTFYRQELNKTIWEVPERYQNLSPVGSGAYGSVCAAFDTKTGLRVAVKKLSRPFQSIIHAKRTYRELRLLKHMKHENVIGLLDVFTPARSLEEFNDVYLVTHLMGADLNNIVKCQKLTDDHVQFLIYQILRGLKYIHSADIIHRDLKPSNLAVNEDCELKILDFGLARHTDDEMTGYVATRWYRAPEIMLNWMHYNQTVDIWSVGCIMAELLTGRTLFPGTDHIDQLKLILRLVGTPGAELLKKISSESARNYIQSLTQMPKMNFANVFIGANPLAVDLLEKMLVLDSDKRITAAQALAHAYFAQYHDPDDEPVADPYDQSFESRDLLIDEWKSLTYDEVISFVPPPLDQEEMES
Regarding `Cc1ccccc1Cc1ccc(Nc2ccc(F)cc2C)cc1Cl`, the pIC50 was < 4.00.

Another assay concerns the target ROCK2 (UniProt O75116). The experiment in a line: Inhibition of ROCK2 Kinase Activity.
Settings: not given
Consider `N#C/C(=C1/Nc2ccccc2S1)c1ccnc(NCCc2cccnc2)n1`, for which the pIC50 is 5.00 to 5.30.
As for `NS(=O)(=O)c1ccc(Nc2nc(OCC3CCCCC3)c3nc[nH]c3n2)cc1`, the pIC50 is 6.22.

The same assay, now with this note: concentration not given here.
On to `Oc1cc2nc(-c3cccs3)c(-c3cccs3)nc2cc1O`, for which the inhibition was -18%.
Still for that read-out and setting: with `NC(=O)c1c(NC(=O)Nc2ccccc2)sc2cc(O)ccc12` the figure was > 50%.

Another assay concerns the target ROCK2 (human) (UniProt O75116). The assay is described as follows: Inhibition of ROCK2 Kinase Activity. As to conditions: concentration not given here.
Consider `O=C(NCc1ccc(S(=O)(=O)N2CCC(n3nnc4ccccc43)CC2)s1)c1ccc(Cl)cc1`, for which the inhibition is -1%.

The target in another assay is MAPK14 (UniProt Q16539). The assay is described as follows: MAPK14 Kinase Inhibition.
MAPK14, sequence (Q16539 whole entry, looked up): as above
Settings: not given
Consider `CSc1nccc(-c2cccnc2-c2ccc(F)cc2)n1`, for which the pIC50 was > 4.30.
For `Fc1ccc(-c2ncccc2-c2ccnc(Oc3ccccc3)n2)cc1`, the pIC50 is > 4.30.
`Cc1ccccc1Nc1nccc(-c2cccnc2-c2ccc(F)cc2)n1`: the pIC50 was > 4.30.
As for `COc1nccc(-c2cccnc2-c2ccc(F)cc2)n1`, the pIC50 was > 4.30.
Take `Nc1nccc(-c2cccnc2-c2ccc(F)cc2)n1`: the pIC50 was > 4.30.

A further assay has as its target EGFR (murine) (UniProt P00533).
Experiment: not given
Particulars: nih 3t3.
On to `O=c1[nH]c2ccc(Oc3ccccc3)nc2[nH]1`, for which the negative-log IC50 (pIC50) is < 4.00.
Consider `COC(=O)Nc1nc2ccc(Oc3ccccc3)nc2[nH]1`, for which the pIC50 was < 4.00.
Same read-out and setting: the same measure for `O=c1[nH]c2ccc(Sc3ccccc3)nc2[nH]1`: < 4.00; for `CCOC(=O)Nc1nc2ccc(Oc3ccccc3)nc2[nH]1`: < 4.00.

In a further assay the target is EGFR (Balb/c mice) (UniProt P00533).
Experiment: not given
Settings: not given
As to `Cc1ccc2ncnc(Nc3cccc(Cl)c3)c2c1`, the LD50 was > 400 mg/kg.

Another assay concerns the target CDK2 (human) (UniProt P24941). The experiment in a line: Enzyme Assay. Particulars: concentration not given here.
As for `O=C(NCc1ccc(S(=O)(=O)N2CCC(n3nnc4ccccc43)CC2)s1)c1ccc(Cl)cc1`, the inhibition is 1%.

The target of the next assay is EGFR (human) (UniProt P00533).
Experiment: not given
Settings: not given
Molecule `O=C(/C=C/CN1CC2CC1CO2)Nc1cc2c(Nc3ccc(F)c(Cl)c3)ncnc2cc1OC1CCCC1` (stereo not given) showed a pIC50 of 9.30.
`O=C(/C=C/CN1CC2CC1CO2)Nc1cc2c(Nc3ccc(F)c(Cl)c3)ncnc2cc1OCC1CC1` (stereo not given) had a negative logarithm of the IC50 (pIC50) of 8.82.
In turn, `O=C(/C=C/CN1CC2CC1CO2)Nc1cc2c(Nc3ccc(F)c(Cl)c3)ncnc2cc1O[C@H]1CCOC1` (stereo not given in full) gave a pIC50 of 9.30.
For the molecule `O=C(/C=C/N1CC2CC1CO2)Nc1cc2c(Nc3ccc(F)c(Cl)c3)ncnc2cc1O[C@H]1CCOC1` (stereo not given in full), the pIC50 was 9.30.

Another assay addresses EGFR (UniProt P00533).
Experiment: not given
Settings: not given
The source holds these as a separate data set.
`N#Cc1cnc2cc3nc[nH]c3cc2c1Nc1cccc(Br)c1`: the pIC50 is 8.82.
The same measure, in the same setting: the same measure for `C=CC(=O)Nc1ccc2sc3c(Nc4cccc(Br)c4)c(C#N)cnc3c2c1`: 5.00; for `N#Cc1cnc2c(sc3ccc(N)cc32)c1Nc1cccc(Br)c1`: 5.00.
`N#Cc1cnc2c(sc3ccc([N+](=O)[O-])cc32)c1Nc1cccc(Br)c1` gave a pIC50 of 5.00.

For another assay, the target named is MAPK14 (human) (UniProt Q16539). The experiment in a line: Inhibition of TNF-alpha Production in LPS Stimulated Whole Blood. Particulars: blood cells.
For the molecule `C=CCOCCn1c(SC)nc(-c2ccc(F)cc2)c1-c1ccnc(NC(C)=O)c1`, the pIC50 is < 4.00.
